Test results published in ChEMBL document CHEMBL1134903, “Synthesis and SAR of azalide 3,6-ketal aromatic derivatives as potent Gram-positive and Gram-negative antibacterial agents” (Bioorg Med Chem Lett, 2002).
Values after ≈ are worked out from the molar mass of the structure shown.

What was measured:
Format in all cases: functional
Pasteurella multocida = experiment: Minimum inhibitory concentration against Pasteurella multocida
Staphylococcus aureus [1] = experiment: Effective dose required to inhibit Staphylococcus aureus intraperitoneal (IP) infection model
Staphylococcus aureus [2] = experiment: Minimum inhibitory concentration against Staphylococcus aureus
Escherichia coli = experiment: Minimum inhibitory concentration against Escherichia coli
Staphylococcus aureus [3] = experiment: Colony forming units of Staphylococcus aureus intramammary infection (IMI) model was determined at a dose of 15 mg/kg

`CC[C@H]1OC(=O)[C@H](C)[C@H]2OC3(CCN(C(=O)c4cncc(Cl)c4Cl)CC3)O[C@](C)(C[C@@H](C)CN[C@H](C)[C@@H](O)[C@]1(C)O)[C@H](O[C@@H]1O[C@H](C)C[C@H](N(C)C)[C@H]1O)[C@H]2C` gave an MIC (Pasteurella multocida) of 0.1 µg/mL (≈ 0.12 µM), an ED50 (Staphylococcus aureus [1]) greater than 20 mg/kg and an MIC (Staphylococcus aureus [2]) of 3.13 µg/mL (≈ 3.76 µM). The MIC (Escherichia coli) was 3.13 µg/mL (≈ 3.76 µM).
For `CC[C@H]1OC(=O)[C@H](C)[C@H]2OC3(CCN(C(=O)c4ccco4)CC3)O[C@](C)(C[C@@H](C)CN(C)[C@H](C)[C@@H](O)[C@]1(C)O)[C@H](O[C@@H]1O[C@H](C)C[C@H](N(C)C)[C@H]1O)[C@H]2C`, the MIC (Pasteurella multocida) was 0.05 µg/mL (≈ 0.0653 µM), the ED50 (Staphylococcus aureus [1]) was greater than 20 mg/kg and the “Log CFU” value (Staphylococcus aureus [3]) was 3.3. It also gave an MIC (Escherichia coli) of 0.78 µg/mL (≈ 1.02 µM).
In the case of `CC[C@H]1OC(=O)[C@H](C)[C@H]2OC3(CCNCC3)O[C@](C)(C[C@@H](C)CN(C)[C@H](C)[C@@H](O)[C@]1(C)O)[C@H](O[C@@H]1O[C@H](C)C[C@H](N(C)C)[C@H]1O)[C@H]2C`, the MIC (Pasteurella multocida) is reported as 0.05 µg/mL (≈ 0.0744 µM), the MIC (Staphylococcus aureus [2]) is reported as 6.25 µg/mL (≈ 9.3 µM) and the MIC (Escherichia coli) is reported as 0.2 µg/mL (≈ 0.298 µM).
`CC[C@H]1OC(=O)[C@H](C)[C@H]2OC3(CCN(CCc4ccccc4OC)CC3)O[C@](C)(C[C@@H](C)CN[C@H](C)[C@@H](O)[C@]1(C)O)[C@H](O[C@@H]1O[C@H](C)C[C@H](N(C)C)[C@H]1O)[C@H]2C` was tested, and the MIC (Pasteurella multocida) was 0.03 µg/mL (≈ 0.0379 µM), the MIC (Staphylococcus aureus [2]) was 0.39 µg/mL (≈ 0.492 µM) and the MIC (Escherichia coli) was 0.1 µg/mL (≈ 0.126 µM).
Work on `CC[C@H]1OC(=O)[C@H](C)[C@H]2OC3(CCN(C(=O)c4cnc5ccccc5c4)CC3)O[C@](C)(C[C@@H](C)CN(C)[C@H](C)[C@@H](O)[C@]1(C)O)[C@H](O[C@@H]1O[C@H](C)C[C@H](N(C)C)[C@H]1O)[C@H]2C` yielded an MIC (Pasteurella multocida) of 0.1 µg/mL (≈ 0.121 µM), an ED50 (Staphylococcus aureus [1]) greater than 20 mg/kg and an MIC (Staphylococcus aureus [2]) of 0.39 µg/mL (≈ 0.472 µM). It also gave an MIC (Escherichia coli) of 6.25 µg/mL (≈ 7.56 µM).
Work on `CC[C@H]1OC(=O)[C@H](C)[C@H]2OC3(CCN(C(=O)c4ccccc4)CC3)O[C@](C)(C[C@@H](C)CN(C)[C@H](C)[C@@H](O)[C@]1(C)O)[C@H](O[C@@H]1O[C@H](C)C[C@H](N(C)C)[C@H]1O)[C@H]2C` yielded an MIC (Pasteurella multocida) of 0.1 µg/mL (≈ 0.129 µM) and an MIC (Escherichia coli) of 3.13 µg/mL (≈ 4.03 µM).
In the case of `CC[C@H]1OC(=O)[C@H](C)[C@H]2OC3(CCN(CCc4cccc(OC)c4)CC3)O[C@](C)(C[C@@H](C)CN[C@H](C)[C@@H](O)[C@]1(C)O)[C@H](O[C@@H]1O[C@H](C)C[C@H](N(C)C)[C@H]1O)[C@H]2C`, the MIC (Pasteurella multocida) is reported as 0.03 µg/mL (≈ 0.0379 µM), the MIC (Staphylococcus aureus [2]) is reported as 0.39 µg/mL (≈ 0.492 µM) and the MIC (Escherichia coli) is reported as 0.3 µg/mL (≈ 0.379 µM).
`CC[C@H]1OC(=O)[C@H](C)[C@H]2OC3(CCN(CCc4ccoc4)CC3)O[C@](C)(C[C@@H](C)CN(C)[C@H](C)[C@@H](O)[C@]1(C)O)[C@H](O[C@@H]1O[C@H](C)C[C@H](N(C)C)[C@H]1O)[C@H]2C` gave an MIC (Pasteurella multocida) of 0.03 µg/mL (≈ 0.0392 µM) and an MIC (Escherichia coli) of 0.2 µg/mL (≈ 0.261 µM).
Compound `CC[C@H]1OC(=O)[C@H](C)[C@H]2OC3(CCN(CCc4ccccc4)CC3)O[C@](C)(C[C@@H](C)CN[C@H](C)[C@@H](O)[C@]1(C)O)[C@H](O[C@@H]1O[C@H](C)C[C@H](N(C)C)[C@H]1O)[C@H]2C` has an MIC (Pasteurella multocida) of 0.03 µg/mL (≈ 0.0394 µM), an ED50 (Staphylococcus aureus [1]) greater than 20 mg/kg and an MIC (Staphylococcus aureus [2]) of 0.39 µg/mL (≈ 0.512 µM). The MIC (Escherichia coli) was 0.1 µg/mL (≈ 0.131 µM).
In the case of `CC[C@H]1OC(=O)[C@H](C)[C@H]2OC3(CCN(CCc4ccc5ccccc5n4)CC3)O[C@](C)(C[C@@H](C)CN(C)[C@H](C)[C@@H](O)[C@]1(C)O)[C@H](O[C@@H]1O[C@H](C)C[C@H](N(C)C)[C@H]1O)[C@H]2C`, the MIC (Pasteurella multocida) is reported as 0.03 µg/mL (≈ 0.0363 µM), the ED50 (Staphylococcus aureus [1]) is reported as greater than 20 mg/kg and the MIC (Staphylococcus aureus [2]) is reported as 0.39 µg/mL (≈ 0.472 µM). It also gave an MIC (Escherichia coli) of 0.78 µg/mL (≈ 0.943 µM).
Compound `CC[C@H]1OC(=O)[C@H](C)[C@H]2OC3(CCN(CCc4ccc(OC)cc4)CC3)O[C@](C)(C[C@@H](C)CN[C@H](C)[C@@H](O)[C@]1(C)O)[C@H](O[C@@H]1O[C@H](C)C[C@H](N(C)C)[C@H]1O)[C@H]2C` has an MIC (Pasteurella multocida) of 0.01 µg/mL (≈ 0.0126 µM), an MIC (Staphylococcus aureus [2]) of 0.2 µg/mL (≈ 0.253 µM) and an MIC (Escherichia coli) of 0.2 µg/mL (≈ 0.253 µM).
Compound `CC[C@H]1OC(=O)[C@H](C)[C@H]2OC3(CCN(C(=O)c4cc5ccccc5[nH]4)CC3)O[C@](C)(C[C@@H](C)CN[C@H](C)[C@@H](O)[C@]1(C)O)[C@H](O[C@@H]1O[C@H](C)C[C@H](N(C)C)[C@H]1O)[C@H]2C` has an MIC (Pasteurella multocida) of 0.1 µg/mL (≈ 0.125 µM), an ED50 (Staphylococcus aureus [1]) greater than 20 mg/kg and an MIC (Staphylococcus aureus [2]) of 0.78 µg/mL (≈ 0.974 µM). The MIC (Escherichia coli) was 3.13 µg/mL (≈ 3.91 µM).
Work on `CC[C@H]1OC(=O)[C@H](C)[C@H]2OC3(CCN(CCc4ccnc5ccccc45)CC3)O[C@](C)(C[C@@H](C)CN[C@H](C)[C@@H](O)[C@]1(C)O)[C@H](O[C@@H]1O[C@H](C)C[C@H](N(C)C)[C@H]1O)[C@H]2C` yielded an MIC (Pasteurella multocida) of 0.05 µg/mL (≈ 0.0615 µM), an ED50 (Staphylococcus aureus [1]) greater than 20 mg/kg and an MIC (Staphylococcus aureus [2]) of 0.2 µg/mL (≈ 0.246 µM). For the same compound, the MIC (Escherichia coli) was 1.56 µg/mL (≈ 1.92 µM).
`CC[C@H]1OC(=O)[C@H](C)[C@H]2OC3(CCN(CCc4ccc(Cl)cc4)CC3)O[C@](C)(C[C@@H](C)CN[C@H](C)[C@@H](O)[C@]1(C)O)[C@H](O[C@@H]1O[C@H](C)C[C@H](N(C)C)[C@H]1O)[C@H]2C` was tested, and the MIC (Pasteurella multocida) was 0.01 µg/mL (≈ 0.0126 µM) and the MIC (Escherichia coli) was 0.2 µg/mL (≈ 0.251 µM).
In the case of `CC[C@H]1OC(=O)[C@H](C)[C@H]2OC3(CCN(C(=O)c4occc4C)CC3)O[C@](C)(C[C@@H](C)CN[C@H](C)[C@@H](O)[C@]1(C)O)[C@H](O[C@@H]1O[C@H](C)C[C@H](N(C)C)[C@H]1O)[C@H]2C`, the MIC (Pasteurella multocida) is reported as 0.1 µg/mL (≈ 0.131 µM), the ED50 (Staphylococcus aureus [1]) is reported as greater than 20 mg/kg and the MIC (Staphylococcus aureus [2]) is reported as 0.78 µg/mL (≈ 1.02 µM). The MIC (Escherichia coli) was 1.56 µg/mL (≈ 2.04 µM).
